Where no end group is shown, it is not given here.
Legend:
HCT116 cells = test: WST cell viability assay, HCT116; type: cell-based; details: 48 hr
Method: (§1) Western blots are representative of at least three independent experiments. […] Cell viability was determined through the WST assay according to manufacturer's instructions. IC50 values were obtained from a dose-response curve (4-parameter logistic equation) in Origin, from three independent experiments.
(§2) Cells were seeded onto poly-lysine coated, clear-bottomed, 96-well plates at 15000 cells per well. […] Upon 48 hr treatment, cell viability was determined through the WST cell viability assay. According to manufacturers' instructions, 10 μL of the WST reagent was added to each well and incubated at 37° C. for 4 hrs. Absorbance readings for the plate were then taken at 450 nm in a Biotek plate reader.

[1] = tested on: MAPK pathway in the HCT116 cell line; test: MAPK pathway inhibition in HCT116 cells (immunoblotting); type: cell-based; details: 0-75 μM, 4 hr; read-out: IC50 of MAPK pathway inhibition (phospho-MEK, phospho-ERK, degradation of endogenous BRAF and MEK)
Method: as §1

HCT-15 cells = test: WST cell viability assay, HCT-15; type: cell-based; details: 48 hr
Method: as §1, §2

p61 BRAF^V600E = target: T1, p61 BRAF^V600E (Homo sapiens, UniProt P15056, DEL169-380/V600E); test: Immunoblotting of HEK293 cells transfected with p61-BRAF^V600E; type: cell-based; details: increasing concentrations, 4 hr
T1 construct: expressed in transfected cells; host or cells: HEK293
T1 sequence (P15056 with tags, fused parts or gaps DEL169-380/V600E): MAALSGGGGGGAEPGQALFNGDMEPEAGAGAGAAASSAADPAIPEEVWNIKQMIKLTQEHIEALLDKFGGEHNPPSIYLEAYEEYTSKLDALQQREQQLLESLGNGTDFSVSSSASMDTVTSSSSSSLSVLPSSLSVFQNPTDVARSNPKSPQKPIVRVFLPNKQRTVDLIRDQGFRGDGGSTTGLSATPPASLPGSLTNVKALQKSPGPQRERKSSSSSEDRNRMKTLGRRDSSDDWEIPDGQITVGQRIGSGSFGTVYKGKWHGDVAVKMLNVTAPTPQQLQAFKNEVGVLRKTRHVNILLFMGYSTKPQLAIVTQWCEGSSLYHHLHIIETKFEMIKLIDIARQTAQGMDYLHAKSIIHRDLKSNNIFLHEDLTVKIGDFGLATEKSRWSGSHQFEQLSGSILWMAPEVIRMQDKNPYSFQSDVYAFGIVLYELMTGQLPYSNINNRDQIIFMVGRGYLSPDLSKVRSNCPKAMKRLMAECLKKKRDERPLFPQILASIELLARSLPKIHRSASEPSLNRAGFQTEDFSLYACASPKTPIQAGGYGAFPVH

BRAF^WT in HEK293 cells = target: T2, BRAF^WT in HEK293 cells (Homo sapiens, UniProt P15056); test: BRAF degradation: bortezomib rescue and cycloheximide half-life in HEK293 cells; type: cell-based; details: pre-treated with 0.4 μM Bortezomib 5 hr, then 75 and 100 μM peptide 4 hr
T2 construct: expressed in transfected cells; host or cells: HEK293
T2 sequence (P15056 whole entry): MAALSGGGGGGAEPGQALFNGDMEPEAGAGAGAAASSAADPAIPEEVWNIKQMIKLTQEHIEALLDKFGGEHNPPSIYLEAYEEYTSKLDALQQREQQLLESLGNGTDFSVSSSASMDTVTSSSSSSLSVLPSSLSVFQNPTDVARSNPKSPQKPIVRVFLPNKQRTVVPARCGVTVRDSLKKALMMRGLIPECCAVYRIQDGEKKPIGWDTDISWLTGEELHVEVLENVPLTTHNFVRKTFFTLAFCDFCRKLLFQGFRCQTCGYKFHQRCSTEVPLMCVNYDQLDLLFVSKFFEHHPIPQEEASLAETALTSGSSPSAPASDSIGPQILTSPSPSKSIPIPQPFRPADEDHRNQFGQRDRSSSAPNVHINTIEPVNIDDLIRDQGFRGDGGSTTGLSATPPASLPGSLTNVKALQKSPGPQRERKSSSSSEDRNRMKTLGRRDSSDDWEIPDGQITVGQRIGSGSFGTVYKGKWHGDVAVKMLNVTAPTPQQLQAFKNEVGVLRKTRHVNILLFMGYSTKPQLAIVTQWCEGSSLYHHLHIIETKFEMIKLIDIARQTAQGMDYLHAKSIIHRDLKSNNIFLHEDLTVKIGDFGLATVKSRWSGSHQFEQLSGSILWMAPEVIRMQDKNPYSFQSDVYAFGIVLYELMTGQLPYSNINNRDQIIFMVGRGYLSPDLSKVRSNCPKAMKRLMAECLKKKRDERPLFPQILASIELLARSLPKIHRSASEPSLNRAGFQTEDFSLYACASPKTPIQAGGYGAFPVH
Method: FIG. 3B illustrates quantification of BRAF protein levels after rescue with Bortezomib. […] FIG. 3D illustrates quantification of the Western Blot to determine the half-life (t,1/2) of BRAF. Western blots are representative of at least three independent experiments.
HEK293 cells transiently transfected with wild-type BRAF were treated with cycloheximide.

[2] = tested on: BRAF^WT/G469A kinase activity in HEK293 cells; test: Immunoblotting of HEK293 cells transiently transfected with BRAF^WT/G469A (pMEK, BRAF, MEK levels); type: cell-based; details: 0-100 μM, 4 hrs
Method: FIGS. 2A-2C illustrate TAT-tagged Braftide inhibits BRAF^WT/G469A kinase activity in HEK293 cells. HEK293 cells transiently transfected with BRAF^WT/G469A were treated with TAT-braftide or TAT peptide at the indicated concentrations (0, 10, 25, 50, 75, and 100 μM) for 4 hrs. Cell lysates were subjected to immunoblotting with the indicated antibodies: anti-BRAF, anti-pMEK, and anti-Actin. FIG. 2A illustrates effect of TAT-braftide on BRAF^WT/G469A kinase activity in HEK293 cells. FIG. 2B illustrates effect of TAT control peptide on BRAF^WT/G469A kinase activity in HEK293 cells. Western blots are representative of at least three independent experiments. The band intensities from the Western Blots were quantified in ImageJ. FIG. 2C illustrates confocal microscopy images of HEK293 cells treated with 25 μM braftide-Cy3 for 2 hr and stained with FLAG antibody for BRAF.
HEK293 cells were plated at one million cells per 2 mL :DMEM supplemented with 10% FBS and 1% L-glutarnine. These cells were incubated at 37° C. with 5% CO2 for 24 hours or until the cells reach a confluency of 40-60%. DNA (1-3 μg) was mixed with PEI-MAX in a 1:3 ratio in Opti-MEM at RT for ˜25 minutes and added onto the cells with fresh media. After 48 hrs, the cells were washed with cold PBS, harvested, lysed with 4% SDS and homogenized. For peptide assays, 48 hrs post-transfection, cells were treated with TAT-Braftide/TAT control in reduced serum media at the indicated concentrations for 4 hrs. The cells were then washed twice with PBS, lysed as above and quantified with the BCA protein assay. Equal amounts of cell lysates were loaded for immunoblotting and then probed for relevant proteins. […] Protein concentrations were determined with BCA assays for immunoblotting.
Braftide was conjugated with the TAT sequence ([…]; SEQ ID NO:2), a cell-penetrating peptide widely used in peptide drugs. […] The activity of BRAF was quantified by probing for phospho-MEK1/2. […] A Cy3-tagged version of braftide was synthesized and evaluated for its ability of crossing the plasma membrane using immunofluorescence experiments. […]

[3] = tested on: MAPK signaling in HEK293 cells overexpressing wild-type BRAF or BRAF^G469A; test: Cell-based synergy assay of TAT-braftide with ATP-competitive inhibitors in HEK293 cells overexpressing BRAF^WT or BRAF^G469A
Method: IC50 values were obtained from a dose-response curve (4-parameter logistic equation) in Origin, from three independent experiments. […] Western blots are representative of at least three independent experiments.
Cell lysates were subjected to immunoblotting for the indicated proteins.
HEK293 cells were plated at one million cells per 2 mL :DMEM supplemented with 10% FBS and 1% L-glutarnine. These cells were incubated at 37° C. with 5% CO2 for 24 hours or until the cells reach a confluency of 40-60%. DNA (1-3 μg) was mixed with PEI-MAX in a 1:3 ratio in Opti-MEM at RT for ˜25 minutes and added onto the cells with fresh media. After 48 hrs, the cells were washed with cold PBS, harvested, lysed with 4% SDS and homogenized. […] The cells were then washed twice with PBS, lysed as above and quantified with the BCA protein assay. Equal amounts of cell lysates were loaded for immunoblotting and then probed for relevant proteins. […] Cells were washed twice with PBS and processed as above. Protein concentrations were determined with BCA assays for immunoblotting.
The efficacy of current ATP-competitive BRAF inhibitors is limited to BRAF^V600E that signals as a monomer.

[4] = dabrafenib alone, wild-type BRAF, 1 hr

Braftide conjugated with the TAT sequence (GRKKRRQRRRPQ; SEQ ID NO:2), a cell-penetrating peptide (GRKKRRQRRRPQTRHVNILLFM; also: possible unspecified modification flagged (lipid/PEG, unknown token)) [TAT-braftide]
EC50 (HCT116 cells; WST assay, read-out: EC50 of inhibition of cell growth, HCT116): 5 µM
IC50 [1]: < 10 µM
EC50 (HCT-15 cells; WST assay, read-out: EC50 of inhibition of cell growth, HCT-15): 9 µM
pMEK and pERK levels (p61 BRAF^V600E): A decrease in both pMEK and pERK levels was observed
protein level of p61 (p61 BRAF^V600E): not affected as dramatically as wild-type BRAF
kinase activity of BRAF after proteasome inhibition (BRAF^WT in HEK293 cells): still successfully inhibited the kinase activity of BRAF
activity of BRAF (phospho-MEK1/2) [2]: significantly reduced the activity of BRAF in a dose-dependent manner
protein levels of overexpressed BRAF and endogenous MEK1 [2]: markedly decreased in a dose-dependent manner

GRKKRRQRRRPQ [TAT peptide, cell-penetrating peptide used as the negative control, reference compound]
cell death, HCT116 (HCT116 cells; at concentrations up to 100 μM): no cell death was observed
cell death, HCT-15 (HCT-15 cells; at concentrations up to 100 μM): no cell death was observed
activity of BRAF (phospho-MEK1/2) [2]: no inhibition effect was observed

CCCS(=O)(=O)Nc1ccc(F)c(C(=O)c2c[nH]c3ncc(-c4ccc(Cl)cc4)cc23)c1F [vemurafenib, N-(3-{[5-(4-Chlorophenyl)-1H-pyrrolo[2,3-b]pyridin-3-yl]carbonyl}-2,4-difluorophenyl)propane-1-sulfonamide]
synergy with braftide ([3]; braftide 75 μM 2 hr, then vemurafenib 1 hr): same synergy effect between vemurafenib and braftide was validated

CC(C)(C)c1nc(-c2cccc(NS(=O)(=O)c3c(F)cccc3F)c2F)c(-c2ccnc(N)n2)s1 [dabrafenib, N-{3-[5-(2-aminopyrimidin-4-yl)-2-tert-butyl-1,3-thiazol-4-yl]-2-fluorophenyl}-2,6-difluorobenzenesulfonamide]
concentration at which dabrafenib performed as an inhibitor [3, 4]: above 10 μM
effect on MAPK signaling at lower concentrations [3, 4]: activated the MAPK signaling at lower concentrations
